Like-named read-outs stand apart in the source and are kept apart here.
Tested on: M. tuberculosis Clinical isolate: S, H, R and E resistant
Type: cell-based, Mycobacterium tuberculosis
Conditions: 72 hours

SMILES	% reduction in RLU (0.5 μg/mL) [%]	% reduction in RLU (5 μg/mL) [%]	% reduction in RLU (10 μg/mL) [%]
C=C(NC(=O)C(=C)NC(=O)c1csc(C2=NC3c4csc(n4)C4NC(=O)c5csc(n5)C(C(C)(O)C(C)O)NC(=O)C5CSC(=N5)/C(=C\C)NC(=O)C(C(C)O)NC(=O)c5csc(n5)C3(CC2)NC(=O)C(C)NC(=O)C(=C)NC(=O)C(C)NC(=O)C(C(C)C)NC2C=Cc3c(C(C)O)cc(nc3C2O)C(=O)OC4C)n1)C(N)=O (stereo not drawn) [Compound of Formula I(a)]	20.88	78.11	88.42
C=C(NC(=O)c1csc(C2=NC3c4csc(n4)C4NC(=O)c5csc(n5)C(C(C)(O)C(C)O)NC(=O)C5CSC(=N5)/C(=C\C)NC(=O)C(C(C)O)NC(=O)c5csc(n5)C3(CC2)NC(=O)C(C)NC(=O)C(=C)NC(=O)C(C)NC(=O)C(C(C)C)NC2C=Cc3c(C(C)O)cc(nc3C2O)C(=O)OC4C)n1)C(=O)NC(C)C(N)=O (stereo not drawn) [Compound of Formula I(b)]	5.67	70.9	83.74

Source: patent US10501492B2, “Antibiotic compounds” (priority 2009, dated 2019)
